Reference: patent US7851475B2, “Substituted pyrrole-2, 5-diones as protein kinase C inhibitors” (Novartis AG, priority 2004, dated 2010)

Assays:
Human recombinant PKCα = target: T1, Human recombinant PKCα (Homo sapiens, UniProt P17252); assay: Protein Kinase Cα Assay; format: biochemical; conditions: 10 μM 33P-ATP, 60 min room temperature
T1 construct: purchased Oxford Biomedical Research

[1] = test system: Jurkat cells transfected with a human interleukin-2 promoter/reporter gene construct; assay: CD28 Costimulation Assay; format: cell-based; conditions: stimulated transfected Jurkat cells, 5.5 hours, stimulus not specified for these values, read-out: IC50 CD28 costimulation assay (luciferase reporter)
Description: The assay is performed with Jurkat cells transfected with a human interleukin-2 promoter/reporter gene construct as described by Baumann G et al. in Transplant. Proc. 1992; 24:43-8, the β-galactosidase reporter gene being replaced by the luciferase gene (de Wet J., et al., Mol. Cell. Biol. 1987, 7(2), 725-737). Cells are stimulated by solid phase-coupled antibodies or phorbol myristate acetate (PMA) and the Ca^++ ionophore ionomycin as follows. For antibody-mediated stimulation Microlite TM1 microtiter plates (Dynatech) are coated with 3 μg/ml goat anti-mouse IgG Fc antibodies (Jackson) in 55 μl phosphate-buffered saline (PBS) per well for three hours at RT. Plates are blocked after removing the antibodies by incubation with 2% bovine serum albumin (BSA) in PBS (300 μl per well) for 2 hours at RT. […] After incubation for 5.5 hours at 37° C. in 5% CO2, the level of luciferase is determined by bioluminescence measurement. […] Luciferase activity is assessed with a bioluminescence reader (Labsystem, Helsinki, Finland) after automatic addition of 50 μl per well luciferase reaction buffer containing 20 mM Tricine, 1.07 mM (MgCO3)4Mg(OH)2×5H2O, 2.67 mM MgSO4, 0.1 mM EDTA, 33.3 mM DTT, 270 μM coenzyme A, 470 μM luciferin (Chemie Brunschwig AG), 530 μM ATP, pH 7.8. […] The inhibition obtained in the presence of a test compound is calculated as percent inhibition of the high control. […]

[2] = test system: spleen cells from CBA and BALB/c mice; assay: Allogeneic Mixed Lymphocyte Reaction (MLR); format: cell-based; conditions: two-way MLR, CBA and BALB/c mouse spleen cells, four days incubation, read-out: IC50 MLR (3H-thymidine incorporation, proliferation)
Description: The two-way MLR is performed according to standard procedures (J. Immunol. Methods, 1973, 2, 279 and Meo T. et al., Immunological Methods, New York, Academic Press, 1979, 227-39). Briefly, spleen cells from CBA and BALB/c mice (1.6×10^5 cells from each strain per well in flat bottom tissue culture microtiter plates, 3.2×10^5 in total) are incubated in RPMI medium containing 10% FCS, 100 U/ml penicillin, 100 μg/ml streptomycin (Gibco BRL, Basel, Switzerland), 50 μM 2-mercaptoethanol (Fluka, Buchs, Switzerland) and serially diluted compounds. Seven three-fold dilution steps in duplicates per test compound are performed. After four days of incubation 1 μCi ^3H-thymidine is added. Cells are harvested after an additional five-hour incubation period, and incorporated ^3H-thymidine is determined according to standard procedures. Background values (low control) of the MLR are […].
[…] proliferation of BALB/c cells alone. Low controls are subtracted from all values. High controls without any sample are taken as 100% proliferation. […]

Human recombinant PKCθ = Human recombinant PKCθ (Homo sapiens, UniProt Q04759); assay: Protein Kinase C θ Assay
Sequence of Human recombinant PKCθ (Q04759 whole entry): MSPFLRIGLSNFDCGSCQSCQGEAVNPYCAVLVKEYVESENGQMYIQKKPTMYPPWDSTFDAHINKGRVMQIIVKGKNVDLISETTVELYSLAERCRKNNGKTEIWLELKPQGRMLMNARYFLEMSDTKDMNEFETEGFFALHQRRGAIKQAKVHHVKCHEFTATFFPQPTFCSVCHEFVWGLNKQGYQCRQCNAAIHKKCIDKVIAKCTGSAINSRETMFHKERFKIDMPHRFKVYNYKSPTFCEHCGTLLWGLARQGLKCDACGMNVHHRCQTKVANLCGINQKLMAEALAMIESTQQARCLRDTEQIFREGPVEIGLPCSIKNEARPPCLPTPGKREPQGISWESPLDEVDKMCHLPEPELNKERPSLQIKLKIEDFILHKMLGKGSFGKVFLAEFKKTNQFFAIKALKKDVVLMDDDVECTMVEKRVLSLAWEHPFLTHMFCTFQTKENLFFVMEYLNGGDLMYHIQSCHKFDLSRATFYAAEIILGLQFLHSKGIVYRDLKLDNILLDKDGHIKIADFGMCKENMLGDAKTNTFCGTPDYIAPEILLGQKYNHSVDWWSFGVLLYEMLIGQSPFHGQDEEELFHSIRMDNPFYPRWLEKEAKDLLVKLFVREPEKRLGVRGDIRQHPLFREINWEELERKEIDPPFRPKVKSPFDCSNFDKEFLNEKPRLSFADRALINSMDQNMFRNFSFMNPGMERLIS
Description: The compounds of the invention are tested for their activity on different PKC isoforms according to the following method. Assay is performed in a white with clear bottom 384-well microtiterplate with non-binding surface. The reaction mixture (25 μl) contains 1.5 μM of a tridecapeptide acceptor substrate that mimics the pseudo substrate sequence of PKC α with the Ala→Ser replacement, 10 μM ^33P-ATP, 10 mM Mg(NO3)2, 0.2 mM CaCl2, PKC at a protein concentration varying from 25 to 400 ng/ml (depending on the isotype used), lipid vesicles (containing 30 mol % phosphatidylserine, 5 mol % DAG and 65 mol % phosphatidylcholine) at a final lipid concentration of 0.5 mM, in 20 mM Tris-HCl buffer pH 7.4+0.1% BSA. Incubation is performed for 60 min at room temperature. Reaction is stopped by adding 50 μl of stop mix (100 mM EDTA, 200 μM ATP, 0.1% Triton X-100, 0.375 mg/well streptavidin-coated SPA beads in phosphate buffered saline w/o Ca, Mg). After 10 min incubation at room temperature, the suspension is spun down for 10 min at 300 g. Incorporated radioactivity is measured in a Trilux counter for 1 min. IC50 measurement is performed on a routine basis by incubating a serial dilution of inhibitor at concentrations ranging between 1-1000 μM. IC50 values are calculated from the graph by curve fitting with XL fit® software.

IC50 (Human recombinant PKCα) | IC50 [1] | IC50 (Human recombinant PKCθ) | SMILES | IC50 [2]
2.6 nM | 25.5 nM | 8.9 nM | CN1CCN(c2ccc([N+](=O)[O-])c(C3=C(c4c[nH]c5ccccc45)C(=O)NC3=O)c2)CC1 [Example 1, 3-(1H-indol-3-yl)-4-[5-(4-methyl-piperazin-1-yl)-2-nitro-phenyl]-pyrrole-2,5-dione] | 17.5 nM
2.9 nM | 17 nM | 10.2 nM | Cc1cccc2c(C3=C(c4cc(N5CCN(C)CC5)ccc4[N+](=O)[O-])C(=O)NC3=O)c[nH]c12 [Example 4] | 24 nM
